Measured values: patent publication US9573957B2 (Boehringer Ingelheim International GmbH, priority 2013, dated 2017)

Tests used:
[1] = system: synthesis of LTB4 in human whole blood; assay: LTB4 production inhibition assay in human whole blood (HWB); assay type: cell-based; settings: heparinized human whole blood, 15 min at 37° C., Calcimycin 20 μM 30 min, plasma LTB4 by HTRF
In short: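 LTB4 in plasma read by HTRF immunoassay after centrifugation. Before that, compound sat with heparinized human whole blood 15 min at 37° C, followed by 30 min at 37° C with 20 μM (final) calcimycin.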

human LTA4 hydrolase = human LTA4 hydrolase (Homo sapiens (Human), UniProt P09960); assay: LTA4H Enzyme assay (peptidase, Arg-AMC cleavage); assay type: biochemical; settings: LTA4H Enzyme 1 nM, Arg-AMC substrate 50 μM, room temperature 1 h, fluorescence
Sequence of human LTA4 hydrolase (P09960 whole entry): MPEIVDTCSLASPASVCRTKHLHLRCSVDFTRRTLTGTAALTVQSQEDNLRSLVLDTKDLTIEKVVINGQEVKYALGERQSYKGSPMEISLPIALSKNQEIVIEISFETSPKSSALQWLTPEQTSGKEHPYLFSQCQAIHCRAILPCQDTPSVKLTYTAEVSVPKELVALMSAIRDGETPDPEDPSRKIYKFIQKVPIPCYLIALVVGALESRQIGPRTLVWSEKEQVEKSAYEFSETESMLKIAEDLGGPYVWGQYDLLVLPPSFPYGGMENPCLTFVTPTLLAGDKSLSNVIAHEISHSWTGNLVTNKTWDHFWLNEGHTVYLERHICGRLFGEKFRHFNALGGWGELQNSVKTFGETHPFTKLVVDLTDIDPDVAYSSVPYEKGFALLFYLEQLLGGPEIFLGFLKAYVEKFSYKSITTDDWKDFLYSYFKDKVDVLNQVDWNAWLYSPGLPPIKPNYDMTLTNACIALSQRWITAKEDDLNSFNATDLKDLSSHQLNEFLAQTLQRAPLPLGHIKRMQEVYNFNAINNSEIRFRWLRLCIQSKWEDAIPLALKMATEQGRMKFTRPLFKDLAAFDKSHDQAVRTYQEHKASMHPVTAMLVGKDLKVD
In short: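 Aminomethylcoumarin release measured fluorimetrically (380/460 nm) after 1 h at room temperature. Reaction: 1 nM final enzyme, 50 μM final Arg-AMC and compound in Tris-HCl pH 7.5 with 100 mM KCl and 0.5% BSA.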

Structure (SMILES) | IC50 [1] | IC50 (human LTA4 hydrolase)
CO[C@H](C)C(=O)N1CCN(Cc2cn3cc(Oc4ccc(-c5ccn[nH]5)cc4)ccc3n2)CC1 [Example 80, (R)-2-Methoxy-1-(4-{6-[4-(2H-pyrazol-3-yl)-phenoxy]-imidazo[1,2-a]pyridin-2-ylmethyl}-piperazin-1-yl)-propan-1-one] | 200 nM | 0.85 nM
CC(C)(O)C(=O)N1CCN(CCC2COc3cc(Oc4ccc(-c5ccn[nH]5)cn4)ccc32)CC1 (stereo not shown) [Example 81, 2-Hydroxy-2-methyl-1-[4-(2-{6-[5-(2H-pyrazol-3-yl)-pyridin-2-yloxy]-2,3-dihydro-benzofuran-3-yl}-ethyl)-piperazin-1-yl]-propan-1-one] | 580 nM | 2.2 nM
O=C(CO)N1CCN(CCc2coc3cc(Oc4ccc(-c5ccn[nH]5)cn4)ccc23)CC1 [Example 82, 2-Hydroxy-1-[4-(2-{6-[5-(2H-pyrazol-3-yl)-pyridin-2-yloxy]-benzofuran-3-yl}-ethyl)-piperazin-1-yl]-ethanone] | 410 nM | 1.3 nM
C[C@H](O)C(=O)N1CCN(CCc2coc3cc(Oc4ccc(-c5ccn[nH]5)cn4)ccc23)CC1 [Example 83, (S)-2-Hydroxy-1-[4-(2-{6-[5-(2H-pyrazol-3-yl)-pyridin-2-yloxy]-benzofuran-3-yl}-ethyl)-piperazin-1-yl]-propan-1-one] | 240 nM | 0.86 nM
C[C@H](O)C(=O)N1CCN(CCC2COc3cc(Oc4ccc(-c5ccn[nH]5)cn4)ccc32)CC1 (stereo partly drawn) [Example 84, (S)-2-Hydroxy-1-[4-(2-{6-[5-(2H-pyrazol-3-yl)-pyridin-2-yloxy]-2,3-dihydro-benzofuran-3-yl}-ethyl)-piperazin-1-yl]-propan-1-one] | 450 nM | 1.3 nM
CC(C)(O)C(=O)N1CCN(CCc2coc3cc(Oc4ccc(-c5ccn[nH]5)cn4)ccc23)CC1 [Example 85, 2-Hydroxy-2-methyl-1-[4-(2-{6-[5-(2H-pyrazol-3-yl)-pyridin-2-yloxy]-benzofuran-3-yl}-ethyl)-piperazin-1-yl]-propan-1-one] | 310 nM | 1.3 nM
C[C@H](O)C(=O)N1CCN(Cc2cn3cc(Oc4ccc(-c5ccn[nH]5)cc4)ccc3n2)CC1 [Example 87, (S)-2-Hydroxy-1-(4-{6-[4-(2H-pyrazol-3-yl)-phenoxy]-imidazo[1,2-a]pyridin-2-ylmethyl}-piperazin-1-yl)-propan-1-one] | 260 nM | 1 nM
CO[C@@H](C)C(=O)N1CCN(CCC2COc3cc(Oc4ccc(-c5ccn[nH]5)cn4)ccc32)CC1 (stereo partly drawn) [Example 88, (S)-2-Methoxy-1-[4-(2-{6-[5-(2H-pyrazol-3-yl)-pyridin-2-yloxy]-2,3-dihydro-benzofuran-3-yl}-ethyl)-piperazin-1-yl]-propan-1-one] | 410 nM | 1.2 nM
COCC(=O)N1CCN(Cc2cn3cc(Oc4ccc(-c5ccn[nH]5)cc4)ccc3n2)CC1 [Example 89, 2-Methoxy-1-(4-{6-[4-(2H-pyrazol-3-yl)-phenoxy]-imidazo[1,2-a]pyridin-2-ylmethyl}-piperazin-1-yl)-ethanone] | 470 nM | 0.66 nM
O=C(N1CCN(CCC2COc3cc(Oc4ccc(-c5ccn[nH]5)cn4)ccc32)CC1)C1(O)CC1 (stereo not shown) [Example 90, (1-Hydroxy-cyclopropyl)-[4-(2-{6-[5-(2H-pyrazol-3-yl)-pyridin-2-yloxy]-2,3-dihydro-benzofuran-3-yl}-ethyl)-piperazin-1-yl]-methanone] | 640 nM | 1.5 nM
C[C@@H](O)C(=O)N1CCN(CCC2COc3cc(Oc4ccc(-c5ccn[nH]5)cn4)ccc32)CC1 (stereo partly drawn) [Example 91, (R)-2-Hydroxy-1-[4-(2-{6-[5-(2H-pyrazol-3-yl)-pyridin-2-yloxy]-2,3-dihydro-benzofuran-3-yl}-ethyl)-piperazin-1-yl]-propan-1-one] | 930 nM | 2.2 nM
